Columns and labels:
[1] = Lipophilicity, log D of the compound at pH 7.4; format: physicochemical; conditions: buffer
[2] = target: T1, Tyrosine-protein kinase receptor UFO (Homo sapiens, UniProt P30530); test: Inhibition of AXL (unknown origin) by LC-MS analysis
T1 sequence (P30530 whole entry): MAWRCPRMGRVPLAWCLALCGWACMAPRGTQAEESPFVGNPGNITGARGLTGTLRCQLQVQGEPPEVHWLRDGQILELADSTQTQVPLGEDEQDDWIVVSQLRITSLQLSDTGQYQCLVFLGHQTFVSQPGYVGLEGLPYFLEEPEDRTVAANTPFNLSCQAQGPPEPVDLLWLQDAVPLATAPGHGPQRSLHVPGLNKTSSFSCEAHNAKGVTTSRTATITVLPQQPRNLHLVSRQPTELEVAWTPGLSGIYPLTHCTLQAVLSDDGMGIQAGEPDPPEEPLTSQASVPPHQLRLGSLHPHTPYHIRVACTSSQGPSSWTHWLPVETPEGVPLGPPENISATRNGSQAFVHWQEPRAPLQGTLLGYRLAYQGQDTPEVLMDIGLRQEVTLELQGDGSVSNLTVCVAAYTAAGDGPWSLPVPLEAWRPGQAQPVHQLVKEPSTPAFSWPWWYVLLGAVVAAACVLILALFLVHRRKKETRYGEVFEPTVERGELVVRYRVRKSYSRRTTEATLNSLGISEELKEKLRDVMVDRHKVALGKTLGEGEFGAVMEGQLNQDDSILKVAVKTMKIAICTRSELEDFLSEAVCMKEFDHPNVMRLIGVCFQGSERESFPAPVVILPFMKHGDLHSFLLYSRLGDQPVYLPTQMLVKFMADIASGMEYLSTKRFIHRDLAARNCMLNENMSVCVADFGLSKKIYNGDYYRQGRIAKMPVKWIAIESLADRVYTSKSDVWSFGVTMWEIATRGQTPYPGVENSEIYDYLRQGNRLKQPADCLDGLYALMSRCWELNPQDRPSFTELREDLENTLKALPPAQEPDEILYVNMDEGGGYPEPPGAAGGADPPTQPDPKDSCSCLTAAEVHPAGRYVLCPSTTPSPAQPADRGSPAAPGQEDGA

[3] = target: T2, Tyrosine-protein kinase Mer (Homo sapiens, UniProt Q12866); test: Inhibition of MER (unknown origin) by LC-MS analysis
T2 sequence (Q12866 whole entry): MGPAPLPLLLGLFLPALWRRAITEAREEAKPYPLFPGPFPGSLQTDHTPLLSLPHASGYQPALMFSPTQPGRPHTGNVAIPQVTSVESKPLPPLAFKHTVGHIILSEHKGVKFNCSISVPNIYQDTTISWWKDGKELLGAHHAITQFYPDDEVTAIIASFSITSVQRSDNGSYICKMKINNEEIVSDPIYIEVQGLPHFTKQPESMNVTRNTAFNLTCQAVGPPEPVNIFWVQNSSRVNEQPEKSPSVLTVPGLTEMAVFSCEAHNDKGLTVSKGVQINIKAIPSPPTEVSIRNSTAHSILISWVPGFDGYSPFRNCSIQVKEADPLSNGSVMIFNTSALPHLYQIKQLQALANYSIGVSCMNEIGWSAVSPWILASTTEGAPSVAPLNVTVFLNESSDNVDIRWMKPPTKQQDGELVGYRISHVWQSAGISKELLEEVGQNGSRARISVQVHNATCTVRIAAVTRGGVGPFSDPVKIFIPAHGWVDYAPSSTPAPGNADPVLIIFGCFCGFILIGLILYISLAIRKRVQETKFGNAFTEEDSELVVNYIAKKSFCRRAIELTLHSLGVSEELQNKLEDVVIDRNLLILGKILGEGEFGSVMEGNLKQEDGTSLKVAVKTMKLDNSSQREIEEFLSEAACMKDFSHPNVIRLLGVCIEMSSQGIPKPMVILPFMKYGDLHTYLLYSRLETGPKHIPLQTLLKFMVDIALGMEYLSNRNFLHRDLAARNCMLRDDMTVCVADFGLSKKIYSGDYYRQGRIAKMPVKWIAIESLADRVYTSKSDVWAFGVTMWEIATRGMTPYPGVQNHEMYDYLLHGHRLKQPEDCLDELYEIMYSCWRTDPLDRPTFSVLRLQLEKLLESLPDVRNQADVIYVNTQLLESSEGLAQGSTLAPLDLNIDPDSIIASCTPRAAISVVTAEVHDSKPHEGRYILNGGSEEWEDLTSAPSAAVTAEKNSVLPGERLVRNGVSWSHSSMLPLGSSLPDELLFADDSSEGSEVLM

[4] = target: T3, Receptor-type tyrosine-protein kinase FLT3 (Homo sapiens, UniProt P36888); test: Inhibition of FLT3 (unknown origin) by LC-MS analysis
T3 sequence (P36888 whole entry): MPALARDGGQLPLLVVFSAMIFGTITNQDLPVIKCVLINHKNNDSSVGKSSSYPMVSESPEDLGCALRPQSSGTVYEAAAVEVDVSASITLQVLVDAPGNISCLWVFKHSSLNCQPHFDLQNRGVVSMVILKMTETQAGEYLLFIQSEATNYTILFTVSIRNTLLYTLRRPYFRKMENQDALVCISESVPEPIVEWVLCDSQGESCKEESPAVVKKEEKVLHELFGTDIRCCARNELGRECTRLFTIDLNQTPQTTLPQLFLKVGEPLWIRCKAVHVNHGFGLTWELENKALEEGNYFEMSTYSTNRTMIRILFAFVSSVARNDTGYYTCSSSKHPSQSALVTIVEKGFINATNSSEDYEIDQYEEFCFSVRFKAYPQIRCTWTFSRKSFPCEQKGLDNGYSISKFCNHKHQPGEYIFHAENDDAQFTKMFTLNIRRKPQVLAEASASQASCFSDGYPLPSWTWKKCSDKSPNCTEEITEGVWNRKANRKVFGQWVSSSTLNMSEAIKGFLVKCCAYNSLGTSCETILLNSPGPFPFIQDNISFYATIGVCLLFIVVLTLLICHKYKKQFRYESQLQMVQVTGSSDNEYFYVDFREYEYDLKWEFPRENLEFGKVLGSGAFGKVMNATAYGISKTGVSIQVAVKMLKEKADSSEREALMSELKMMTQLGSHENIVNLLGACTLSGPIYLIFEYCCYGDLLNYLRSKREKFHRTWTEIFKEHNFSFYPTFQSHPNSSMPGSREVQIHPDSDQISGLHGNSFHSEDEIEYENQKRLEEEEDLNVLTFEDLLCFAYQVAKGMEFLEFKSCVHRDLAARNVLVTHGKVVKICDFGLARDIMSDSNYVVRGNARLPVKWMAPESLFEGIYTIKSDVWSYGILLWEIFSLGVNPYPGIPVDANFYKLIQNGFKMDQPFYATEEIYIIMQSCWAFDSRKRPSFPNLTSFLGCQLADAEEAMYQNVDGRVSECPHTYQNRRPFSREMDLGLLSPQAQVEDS

[5] = target: T1, Tyrosine-protein kinase receptor UFO; test: Inhibition of FLAG-tagged AXL (unknown origin) transfected in Cos-7 cells assessed as phosphorylation level incubated for 1 hr by ELISA; format: cell-based
[6] = target: T3, Receptor-type tyrosine-protein kinase FLT3; test: Inhibition of FLAG-tagged FLT3 (unknown origin) transfected in Cos-7 cells assessed as phosphorylation level incubated for 1 hr by ELISA; format: cell-based

logD [1] | IC50 [2] [µM] | IC50 [3] [µM] | IC50 [4] [µM] | IC50 [5] [µM] | IC50 [6] [µM] | Compound
3.5 | 20 | 0.794 | 25.1 |  |  | CN(Cc1ccc2nccn2c1)c1nnc(-c2ccc(C3CC3)cc2)o1
2.9 | 0.794 | 0.0158 | 39.8 | 2 | > 31.6 | COc1cc(-c2c(C)nn(C)c2C)ccc1-c1nnc(N(C)Cc2ccc3nccn3c2)o1
3.8 | 0.0398 | 0.00158 | 15.8 | 0.398 | > 31.6 | Cc1cc(-c2c(C)nn(C)c2C#N)ccc1-c1nnc(N(C)Cc2ccc3nccn3c2)o1
2.6 | 3.98 | 0.0398 | 39.8 | 5.01 | > 50.1 | Cc1cc(-c2c(C)nc(C)n2C)ccc1-c1nnc(N(C)Cc2ccc3nccn3c2)o1
4.1 | 63.1 | 0.501 | 100 | > 10 | > 31.6 | Cc1cc(-c2c(C)nn(C(F)F)c2C)ccc1-c1nnc(N(C)Cc2ccc3nccn3c2)o1
2.5 | 3.16 | 0.0631 | > 100 | 10 | > 31.6 | Cc1nc(-c2c(C)nn(C)c2C)ccc1-c1nnc(N(C)Cc2ccc3nccn3c2)o1
4.7 | 0.631 | 0.0126 | 1 |  |  | Cc1ccccc1-c1ccc(-c2nnc(N(C)Cc3ccc4nccn4c3)o2)cc1
3.1 | 1.26 | 0.0316 | > 63.1 | 3.16 |  | Cc1nn(C)c(C)c1-c1ccc(-c2nnc(N(C)Cc3ccc4nccn4c3)o2)cc1
4.4 | 1.58 | 0.0158 | 50.1 |  |  | CN(Cc1ccc2nccn2c1)c1nnc(-c2ccc(-c3ccccc3F)cc2)o1
3.2 | 1.26 | 0.0126 | > 100 | 3.16 | > 31.6 | Cc1nn(C)c(C)c1-c1ccc(-c2nnc(N(C)Cc3ccc4nccn4c3)o2)c(F)c1
3.8 | 5.01 | 0.0398 | 39.8 | 15.8 | 7.94 | Cc1cc(-c2c(C)n[nH]c2C)ccc1-c1nnc(N(C)Cc2ccc3nccn3c2)o1
4.7 |  |  |  |  |  | CN(Cc1ccc2nccn2c1)c1nnc(-c2ccc(-c3ccccc3Cl)cc2)o1
2.9 | > 100 | 100 | 79.4 | > 31.6 | > 31.6 | Cc1nn(C)c(C)c1-c1ccc(-c2nnc(N(C)Cc3ccc4nccn4c3)o2)c(C#N)c1
3.6 | 3.98 | 0.0251 | 10 |  |  | CN(Cc1ccc2nccn2c1)c1nnc(-c2ccc(-c3ccccc3C#N)cc2)o1
2.4 | > 100 | 15.8 | > 100 |  |  | CN(Cc1ccc2nccn2c1)c1nnc(-c2ccccc2)o1
4.1 | 1.58 | 0.0316 | 50.1 |  |  | COc1ccccc1-c1ccc(-c2nnc(N(C)Cc3ccc4nccn4c3)o2)cc1
3.9 | 3.16 | 0.0398 | 25.1 |  |  | CN(Cc1ccc2nccn2c1)c1nnc(-c2ccc(-c3ccccc3)cc2)o1
3.1 | 31.6 | 0.2 | 39.8 |  |  | Cc1noc(C)c1-c1ccc(-c2nnc(N(C)Cc3ccc4nccn4c3)o2)cc1
3.1 | 6.31 | 0.0501 | 20 |  |  | Cc1ncccc1-c1ccc(-c2nnc(N(C)Cc3ccc4nccn4c3)o2)cc1
3.4 | 0.1 | 0.002 | 63.1 | 0.794 | > 31.6 | Cc1cc(-c2cnn(C)c2C)ccc1-c1nnc(N(C)Cc2ccc3nccn3c2)o1
3.4 | 6.31 | 0.0316 | 25.1 | 6.31 |  | Cc1cc(-c2c(C#N)nn(C)c2C)ccc1-c1nnc(N(C)Cc2ccc3nccn3c2)o1
3.3 | 0.0794 | 0.00251 | 20 | 0.794 | > 31.6 | Cc1nn(C)c(C)c1-c1ccc(-c2nnc(N(C)Cc3ccc4nccn4c3)o2)c(Cl)c1
